This note sets out measurements from patent publication US20100075993A1, “SMALL MOLECULE INHIBITORS AGAINST WEST NILE VIRUS REPLICATION” (DREXEL UNIVERSITY, priority 2005, published 2010).

One series deals with WNV replicon. The series is described as follows: WNV replicon luciferase assay in BHK 26.5 cells (HTS, re-test, IC50). The format is cell-based, West Nile virus. The conditions noted are these: for IC50: West Nile virus, 24 h; for Fold decrease (HTS) / Fold decrease (Re-test): luciferase activity; for Fold decrease (HTS): 10 μM compound, 24 hours, BHK 26.5 cells; for Fold decrease (Re-test): re-checked at a single 10 μM concentration. The protocol:
Ten micromolar concentrations of a selected compound were incubated with BHK 26.5 cells expressing luciferase whose activity is dependent upon WNV replicon replication (FIG. 1A). Primary “hits” were defined by the ability to reduce the amount of luciferase enzyme activity by more than 50%, compared to controls.
To quantify and rank the activity of the 23 remaining compound “hits”, a serial dilution of each compound was incubated with WNV replicon cells to determine the concentration that inhibits 50% of the luciferase readout (IC50s). […] A number of compounds had significant effect only at the highest, 10 μM concentration. However, several compounds had IC50s between 2 and 5 (Table 3), which is very reasonable for primary HTS hits from a compound library. Only a few compounds could cause 90% inhibition in the replicon cells at the concentrations tested.
(§1) Replicon-harboring cells were plated 96-well plates at 10,000 cells per well in MEM plus 3% FBS. 24 hours after plating, compounds were added to the wells by a Robotic liquid handler (Biomek NX) to a final concentration of 10 μM and 1% DMSO. For each 96 well plate, A1 to A8 were left open, H1 to H4 contained 1% DMSO, H5-H8 contained Mycophenolic acid (Sigma-Aldrich, St. Louis, Mo.), which was included as positive controls. After 24 hours of treatment, the media were removed and the luciferase activity expressed in the replicon cells was quantified. When cyto-toxicity was measured, duplicate 96 well plates were plated with BHK 26.5 replicon cells. One plate was used for luciferase assay and one plate was used for measuring toxicity using MTT assay.
Luciferase assay was performed by using the STEADY GLO reagent (Promega Corp. Madison, Wis.) according to the manufacturer's recommendation with slight modifications. Briefly, the culture media from the 96 wells were removed by dumping on paper towels.
100 μl of a 1:1 mixture of luciferase regent and culture media were added to the plate. After 5-minute incubation, the luminescence was read on a TOPCOUNT (PerkinElmer, Wellesley, Mass.).

The next series concerns BHK 26.5 replicon cells. The series is described as follows: MTT toxicity assay on BHK 26.5 replicon cells. It counts as cell-based. As to conditions: MTT assay.
Source text: The HTS strategy follows the flowchart outlined in FIG. 2. 35,000 compounds were screened from a chemical library described below, using a cutoff of 50% reduction in luminescence readout as the criteria for further study. Upon completion of the screen, approximately 1100 compounds were selected, making the hit rate of 3%. This is considerably higher than expected, implying many false positive and/or cytotoxic compounds. Nevertheless, the compounds were picked out from the “daughter” plates and re-checked at a single 10 μM concentration. In addition, a duplicate 96 well plates were also plated and the toxicity of the compounds was determined in an MTT assay. Upon completion of these assays, most compounds were disqualified as either false positives or being toxicity to cells. As a result, only a small number of compounds were further analyzed directly from the “mother” plate stock. After IC50 determination and secondary assay to rule out luciferase inhibitors, 23 “hits” were identified.
as §1
Compound toxicity was determined by MTT assay. For the MTT assay, the cell medium was removed and the monolayers were incubated with 100 μl/well of 0.5 mg/ml MTT for 6 h at 37° C. The MTT solution was then aspirated and 100 μl/well of the 10% SDS (in 0.01N HCl) was added, followed by spectrophotometric quantitation (570 nm) of the insoluble MIT reaction product.
In general terms: Tetrazolium assays rely on reduction of a dye to a coloured formazan, in cell work by metabolically active cells.

The test system of another series is WNV. The experiment in a line: WNV yield reduction assay (live virus) on BHK cells. As to conditions: live WNV. It counts as cell-based, West Nile virus. The protocol: The antiviral assay for the 309-F6 compounds was conducted on BHK cells. The virus produced in the presence of 1% DMSO or various concentrations of compounds was tittered on Vero cells. The amount of virus relative to the 1% DMSO control was plotted on the y-axis; the concentration of the compound 309F6 is shown in μM on the x-axis. Data from two independently treated wells (Test 1 and Test 2) are shown.
To measure activity against live WNV, BHK cells were plated in 96-well plates at a concentration of 12,000 cells/well. One day later the cells were infected with WNV for 1 h at an MOI of 0.05. The cells were then washed once and re-fed with fresh DMEM containing dilutions of the test compound. Plates were then incubated at 37° C. for 48 h, the supernatant collected and the WNV produced titered. For virus titration, Vero cells were plated in 96-well plates at 8000 cells/well and incubated overnight. The Vero cell monolayer were then infected for 1 h with various dilutions of the WNV supernatant, overlaid with media containing 0.6% tragacanth (ICN, CA) and incubated at 37° C. for 48 h. The culture media was then aspirated; the plate was rinsed, air-dried, and fixed with 50 μl/well acetone/methanol (50:50). Viral foci were detected for enumeration by immunostaining as described previously (15).

A word on the IC50: it is the concentration at which inhibition is half-maximal. A higher IC50 goes with a need for much substance. As to `NC(=O)CCS(=O)(=O)c1ccc(Cl)cc1` [Compound 2-H7, 3-(4-Chloro-benzenesulfonyl)-propionamide], in the series with WNV replicon, 2.5 µM corresponded to half-maximal inhibition (IC50), the “Fold decrease (HTS)” value was determined as 4.5 Fold and the “Fold decrease (Re-test)” value came to 2.5 Fold. Moreover, the “Toxicity (uM)*” value with BHK 26.5 replicon cells was above 20 µM.

Consider `Cc1cccc(-n2nc3c(c2NC(=O)c2ccc(S(=O)(=O)N4CCCCC4)cc2)CSC3)c1` [Compound 18-H5, 4-(Piperidine-1-sulfonyl)-N-(2-m-tolyl-2,6-dihydro-4H-thieno[3,4-c]pyrazol-3-yl)-benzamide], for which, in the series with WNV replicon, half-maximal inhibition (IC50) required 7.5 µM, the “Fold decrease (HTS)” value was determined as 2 Fold and the “Fold decrease (Re-test)” value worked out at 2 Fold. Also, the “Toxicity (uM)*” value in the series on BHK 26.5 replicon cells was above 30 µM.

Turning to `Cc1ccc(-n2nc3c(c2NC(=O)C2CC2)CSC3)c(C)c1` [Compound 20-E7, Cyclopropanecarboxylic acid [2-(2,4-dimethyl-phenyl)-2,6-dihydro-4H-thieno[3,4-c]pyrazol-3-yl]-amide], in the series on WNV replicon, the IC50 was 10 µM, the “Fold decrease (HTS)” value turned out to be 2.3 Fold and the “Fold decrease (Re-test)” value was 2.4 Fold. The “Toxicity (uM)*” value in the series with BHK 26.5 replicon cells was above 10 µM.

For the compound `O=C1Nc2ccc(S(=O)(=O)Nc3cc(Cl)ccc3Cl)c3cccc1c23` [Compound 24-C10, 2-Oxo-1,2-dihydro-benzo[cd]indole-6-sulfonic acid (2,5-dichloro-phenyl)-amide], in the series on WNV replicon, 10 µM corresponded to half-maximal inhibition (IC50), the “Fold decrease (HTS)” value is on record as 2.5 Fold and the “Fold decrease (Re-test)” value came out at 1.8 Fold. For the same compound, in the series with BHK 26.5 replicon cells, the “Toxicity (uM)*” value was above 10 µM.

For `Cc1ccc(S(=O)(=O)N2Cc3ccccc3CC2C(=O)Nc2ccc(Cl)cc2)cc1` (stereo not drawn) [Compound 42-E5, 2-(Toluene-4-sulfonyl)-1,2,3,4-tetrahydro-isoquinoline-3-carboxylic acid(4-chloro-phenyl)-amide], in the series with WNV replicon, the IC50 worked out at 7.5 µM, the “Fold decrease (HTS)” value came out at 7 Fold and the “Fold decrease (Re-test)” value is reported as 1.7 Fold. For the same compound, the “Toxicity (uM)*” value with BHK 26.5 replicon cells is above 10 µM.

Take `Cc1cc(C)c2nc(NC3=NC(c4ccccc4)CC(=O)N3)nc(C)c2c1` (stereo not drawn) [Compound 50-A8, 6-Phenyl-2-(4,6,8-trimethyl-quinazolin-2-ylamino)-5,6-dihydro-3H-pyrimidin-4-one]: in the series with WNV replicon, the IC50 worked out at 5 µM, the “Fold decrease (HTS)” value is listed as 4.5 Fold and the “Fold decrease (Re-test)” value stood at 2.3 Fold. Further, the “Toxicity (uM)*” value in the series on BHK 26.5 replicon cells was above 10 µM.

As for `CCOC(=O)c1cnc2ccc(OCC)cc2c1NCc1ccccc1` [Compound 63-C10, 4-Benzylamino-6-ethoxy-quinoline-3-carboxylic acid ethyl ester], in the series with WNV replicon, the IC50 turned out to be 5 µM and the “Fold decrease (HTS)” value amounted to 3.5 Fold. Also, in the series with BHK 26.5 replicon cells, the “Toxicity (uM)*” value is above 20 µM.

In the case of `CC1CC(C)CN(S(=O)(=O)c2ccc(C3CCCCC3)cc2)C1` (stereo not drawn) [Compound 182-C2, 1-(4-Cyclohexyl-benzenesulfonyl)-3,5-dimethyl-piperidine], in the series with WNV replicon, the “Fold decrease (HTS)” value came to 5 Fold and the “Fold decrease (Re-test)” value worked out at 1.4 Fold. The “Toxicity (uM)*” value with BHK 26.5 replicon cells is above 10 µM.

As to `CCc1cccc(NC(=O)C(Cc2ccccc2)NS(=O)(=O)c2cccs2)c1` (stereo not drawn) [Compound 207-E5, N-(3-Ethyl-phenyl)-3-phenyl-2-(thiophene-2-sulfonylamino)-propionamide], in the series with WNV replicon, 10 µM corresponded to half-maximal inhibition (IC50), the “Fold decrease (HTS)” value is 5 Fold and the “Fold decrease (Re-test)” value is on record as 2 Fold. In the series with BHK 26.5 replicon cells, the “Toxicity (uM)*” value was above 10 µM.

As for `COc1cc(OC)cc(C(=O)Nc2c3c(nn2-c2cccc(Cl)c2)CSC3)c1` [Compound 253-B10, N-[2-(3-Chloro-phenyl)-2,6-dihydro-4H-thieno[3,4-c]pyrazol-3-yl]-3,5-dimethoxy-benzamide], in the series on WNV replicon, the IC50 stood at 3 µM, the “Fold decrease (HTS)” value was 2 Fold and the “Fold decrease (Re-test)” value is on record as 2 Fold. In addition, in the series on BHK 26.5 replicon cells, the “Toxicity (uM)*” value is above 30 µM.

Regarding `COc1ccc(-n2nc3c(c2NC(=O)c2ccc(OC(C)C)cc2)CSC3)cc1` [Compound 253-F8, 4-Isopropoxy-N-[2-(4-methoxy-phenyl)-2,6-dihydro-4H-thieno[3,4-c]pyrazol-3-yl]-benzamide], in the series on WNV replicon, inhibition was half-maximal at 10 µM (IC50), the “Fold decrease (HTS)” value was 2.5 Fold and the “Fold decrease (Re-test)” value worked out at 2 Fold. In addition, the “Toxicity (uM)*” value with BHK 26.5 replicon cells was above 30 µM.

Consider `O=C(Nc1c2c(nn1-c1ccc(F)cc1)CSC2)c1ccc2c(c1)OCO2` [Compound 253-F11, Benzo[1,3]dioxole-5-carboxylic acid [2-(4-fluoro-phenyl)-2,6-dihydro-4H-thieno[3,4-c]pyrazol-3-yl]-amide], for which, in the series on WNV replicon, half-maximal inhibition (IC50) was put at 10 µM, the “Fold decrease (HTS)” value is recorded as 3 Fold and the “Fold decrease (Re-test)” value was 2 Fold. Further, the “Toxicity (uM)*” value with BHK 26.5 replicon cells is above 30 µM.

Consider `COc1ccc(-n2nc3c(c2NC(=O)c2ccc4c(c2)OCO4)CSC3)cc1` [Compound 253-G8, Benzo[1,3]dioxole-5-carboxylic acid [2-(4-methoxy-phenyl)-2,6-dihydro-4H-thieno[3,4-c]pyrazol-3-yl]-amide], for which, in the series on WNV replicon, the midpoint of inhibition, the IC50, lay at 2.5 µM; the “Fold decrease (HTS)” value is on record as 2 Fold; the “Fold decrease (Re-test)” value is recorded as 2 Fold. Further, in the series on BHK 26.5 replicon cells, the “Toxicity (uM)*” value is above 30 µM.

Take `CCOc1ccc(C(=O)Nc2c3c(nn2-c2ccc(OC)cc2)CSC3)cc1OCC` [Compound 253-H8, 3,4-Diethoxy-N-[2-(4-methoxy-phenyl)-2,6-dihydro-4H-thieno[3,4-c]pyrazol-3-yl]-benzamide]: in the series with WNV replicon, the IC50 stood at 10 µM, the “Fold decrease (HTS)” value amounted to 2 Fold and the “Fold decrease (Re-test)” value amounted to 1.5 Fold. For the same compound, the “Toxicity (uM)*” value in the series on BHK 26.5 replicon cells was above 30 µM.

`CCC(C)NC(=O)c1cnn2c(O)c(Cc3ccccc3Cl)c(C)nc12` (stereo not drawn) [Compound 275-D9, 6-(2-Chloro-benzyl)-7-hydroxy-5-methyl-pyrazolo[1,5-a]pyrimidine-3-carboxylic acid sec-butylamide]: in the series on WNV replicon, the half-inhibitory concentration (IC50) was found to be 7.5 µM, the “Fold decrease (HTS)” value is on record as 10 Fold and the “Fold decrease (Re-test)” value is 2.9 Fold. Also, the “Toxicity (uM)*” value with BHK 26.5 replicon cells was above 10 µM. Moreover, in the series on WNV, the “activity in the WNV infection assay” value is reported as “no detectable activity”.

Regarding `COc1ccc(CCC(=O)Nc2ccc(C(=N)NO)cc2)cc1` [Compound 331-E11, N-[4-(N-Hydroxycarbamimidoyl)-phenyl]-3-(4-methoxy-phenyl)-propionamide], in the series on WNV replicon, it took 5 µM to reach half-maximal inhibition (IC50), the “Fold decrease (HTS)” value amounted to 3 Fold and the “Fold decrease (Re-test)” value came to 1.5 Fold. Besides, the “Toxicity (uM)*” value in the series with BHK 26.5 replicon cells is above 30 µM.
